Target: T1, xyloglucan oligosaccharide-degrading enzyme (Geotrichum sp., UniProt Q8J0D2)
T1 construct: made in house; host or cells: Geotrichum sp. strain M128 (natural producer; enzyme purified, not recombinant)
Assay: Inhibition of the enzyme activity by metal ions
Format: biochemical, Geotrichum sp. strain M128
Conditions: concentration of 1 mM or more

For [Hg+2] [mercury ion], the “inhibition of the activity of the enzyme” value was “strongly inhibited”.

From patent publication US20040038367A1, “Novel xyloglucan oligosaccharide-degrading enzyme, polynucleotide encoding the enzyme, and method of preparing the enzyme” (NATIONAL INSTITUTE OF ADVANCED INDUSTRIAL SCIENCE AND …, priority 2002, published 2004)
